Experimental data taken from patent publication US11866430B2, “Naphthyridinone compounds useful as T cell activators” (priority 2018, dated 2024).

How the values were obtained:
human DGKζ = human DGKζ (Homo sapiens (Human), UniProt Q13574); assay: DGKζ assay (detergent/lipid micelle substrate); type: biochemical; conditions: detergent/lipid micelle substrate; read-out: DGKζ IC50
In short: (§1)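 Enzymes were baculovirus/Sf9 full-length human DGKα or DGKζ with His tag. The substrate was PS/DAG in octyl glucoside micelles, in MOPS pH 7.5 buffer with NaCl, MgCl2, CaCl2 and DTT.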

[1] = system: pre-activated CD4 T cells and Raji cells; assay: Raji CD4 T Cell IL2 Assay; type: cell-based; conditions: Homo sapiens, Raji
human DGKα = human DGKα (Homo sapiens (Human), UniProt P23743); assay: biochemical; conditions: detergent/lipid micelle substrate; read-out: DGKα IC50
human DGKα, sequence (P23743 other isoform, or with tags, fused parts or gaps): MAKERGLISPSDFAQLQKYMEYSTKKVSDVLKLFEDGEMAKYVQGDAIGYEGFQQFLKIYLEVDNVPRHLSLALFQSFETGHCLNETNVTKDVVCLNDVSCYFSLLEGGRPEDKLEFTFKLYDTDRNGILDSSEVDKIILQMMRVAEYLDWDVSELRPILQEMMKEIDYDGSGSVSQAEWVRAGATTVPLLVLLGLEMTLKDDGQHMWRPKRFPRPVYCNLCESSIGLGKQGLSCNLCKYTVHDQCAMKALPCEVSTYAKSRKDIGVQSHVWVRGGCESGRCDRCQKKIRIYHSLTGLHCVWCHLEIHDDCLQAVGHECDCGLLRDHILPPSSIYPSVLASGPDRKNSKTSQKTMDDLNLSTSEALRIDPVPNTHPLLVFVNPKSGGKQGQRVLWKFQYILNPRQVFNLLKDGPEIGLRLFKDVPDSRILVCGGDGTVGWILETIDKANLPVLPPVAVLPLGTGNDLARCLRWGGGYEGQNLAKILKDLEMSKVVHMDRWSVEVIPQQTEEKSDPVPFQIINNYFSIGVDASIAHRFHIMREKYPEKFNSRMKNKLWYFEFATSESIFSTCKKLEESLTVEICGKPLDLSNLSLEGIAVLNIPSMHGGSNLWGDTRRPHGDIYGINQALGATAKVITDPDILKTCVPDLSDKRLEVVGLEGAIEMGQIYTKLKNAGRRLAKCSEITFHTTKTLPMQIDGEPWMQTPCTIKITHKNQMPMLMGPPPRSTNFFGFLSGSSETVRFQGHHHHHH
In short: as §1

human DGKζ, sequence (Q13574 other isoform, or with tags, fused parts or gaps): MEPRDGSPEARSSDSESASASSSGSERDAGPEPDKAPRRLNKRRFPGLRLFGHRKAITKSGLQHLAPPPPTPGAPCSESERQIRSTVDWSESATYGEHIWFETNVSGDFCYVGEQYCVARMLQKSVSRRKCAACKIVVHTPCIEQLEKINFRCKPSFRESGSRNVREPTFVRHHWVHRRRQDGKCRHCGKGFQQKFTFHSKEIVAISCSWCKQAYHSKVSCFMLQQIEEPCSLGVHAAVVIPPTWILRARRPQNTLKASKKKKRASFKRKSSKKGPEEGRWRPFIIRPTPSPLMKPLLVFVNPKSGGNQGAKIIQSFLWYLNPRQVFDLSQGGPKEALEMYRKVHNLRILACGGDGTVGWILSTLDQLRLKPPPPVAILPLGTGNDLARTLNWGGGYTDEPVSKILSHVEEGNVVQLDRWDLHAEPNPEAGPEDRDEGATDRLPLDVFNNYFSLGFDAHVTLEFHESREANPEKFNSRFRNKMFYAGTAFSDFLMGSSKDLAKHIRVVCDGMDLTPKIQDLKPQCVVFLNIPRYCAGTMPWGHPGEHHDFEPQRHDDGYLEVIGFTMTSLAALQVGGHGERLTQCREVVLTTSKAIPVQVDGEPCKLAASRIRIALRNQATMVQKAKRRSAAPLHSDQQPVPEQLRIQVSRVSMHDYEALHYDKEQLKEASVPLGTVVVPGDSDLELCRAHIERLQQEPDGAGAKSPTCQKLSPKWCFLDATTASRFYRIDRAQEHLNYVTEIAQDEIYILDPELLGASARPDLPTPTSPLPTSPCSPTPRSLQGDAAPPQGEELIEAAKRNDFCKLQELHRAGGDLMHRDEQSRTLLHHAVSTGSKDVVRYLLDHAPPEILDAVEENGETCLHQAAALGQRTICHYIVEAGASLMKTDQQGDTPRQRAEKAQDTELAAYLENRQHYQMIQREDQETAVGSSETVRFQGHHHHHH

SMILES | IC50 (human DGKζ) | IC50 [1] | IC50 (human DGKα)
Cn1c(=O)c(C#N)c(N2CCN(Cc3ccccc3NC(=O)c3ccccc3)CC2)c2nc(Br)ccc21 [Example 213, N-(2-((4-(6-bromo-3-cyano-1-methyl-2-oxo-1,2-dihydro-1,5-naphthyridin-4-yl)piperazin-1-yl)methyl)phenyl)benzamide] | > 240 µM | 0.71 µM | 3.1 µM
Cn1c(=O)c(C#N)c(N2CCN(Cc3ccccc3NC(=O)Nc3ccccc3)CC2)c2nc(Br)ccc21 [Example 214, 1-(2-((4-(6-bromo-3-cyano-1-methyl-2-oxo-1,2-dihydro-1,5-naphthyridin-4-yl)piperazin-1-yl)methyl)phenyl)-3-phenylurea] | > 81 µM | 0.55 µM | 3.1 µM
CC(=O)Nc1ccccc1CN1CCN(c2c(C#N)c(=O)n(C)c3ccc(Br)nc23)CC1 [Example 215, N-(2-((4-(6-bromo-3-cyano-1-methyl-2-oxo-1,2-dihydro-1,5-naphthyridin-4-yl)piperazin-1-yl)methyl)phenyl)acetamide] | > 81 µM | 0.48 µM | 4.1 µM
CCn1ccc2c(CN3CCN(c4c(C#N)c(=O)n(C)c5ccc(Cl)nc45)CC3)cccc21 [Example 220, 6-chloro-4-(4-((1-ethyl-1H-indol-4-yl)methyl)piperazin-1-yl)-1-methyl-2-oxo-1,2-dihydro-1,5-naphthyridine-3-carbonitrile] | 89 µM | 0.063 µM | 1.7 µM
Cn1c(=O)c(Br)c(N2CCN(C(c3ccc(F)cc3)c3ccc(F)cc3)CC2)c2ncccc21 [Example 230, 4-(4-(bis(4-fluorophenyl)methyl)piperazin-1-yl)-3-bromo-1-methyl-1,5-naphthyridin-2(1H)-one] | > 240 µM | 3.6 µM | 8.8 µM
CN(C)C(=O)c1ccc2c(n1)c(N1CCN(C(c3ccc(F)cc3)c3ccc(F)cc3)CC1)c(C#N)c(=O)n2C [Example 231, 8-(4-(bis(4-fluorophenyl)methyl)piperazin-1-yl)-7-cyano-N,N,5-trimethyl-6-oxo-5,6-dihydro-1,5-naphthyridine-2-carboxamide] | > 240 µM | 3 µM | 170 µM
Cc1ccc2c(n1)c(N1CCN(C(c3ccc(F)cc3)c3ccc(F)cc3)CC1)c(C(F)(F)F)c(=O)n2C [Example 232, 4-(4-(bis(4-fluorophenyl)methyl)piperazin-1-yl)-1,6-dimethyl-3-(trifluoromethyl)-1,5-naphthyridin-2(1H)-one] | > 240 µM | 1.1 µM | 150 µM
COCCn1c(=O)c([N+](=O)[O-])c(N2CCN(C(c3ccccc3)c3ccccc3)CC2)c2ncccc21 [Example 244, 4-[4-(diphenylmethyl)piperazin-1-yl]-1-(2-methoxyethyl)-3-nitro-1,2-dihydro-1,5-naphthyridin-2-one] | > 81 µM | 0.69 µM | 32 µM
Cc1ccc2c(n1)c(N1CCN(Cc3cc(OC(F)(F)F)ccc3O)CC1)c(C#N)c(=O)n2C [Example 262, 4-(4-{[2-hydroxy-5-(trifluoromethoxy)phenyl]methyl}piperazin-1-yl)-1,6-dimethyl-2-oxo-1,2-dihydro-1,5-naphthyridine-3-carbonitrile] | > 240 µM | 0.028 µM | 0.52 µM
COc1cccc(O)c1CN1CCN(c2c(C#N)c(=O)n(C)c3ccc(Cl)nc23)CC1 [Example 264, 6-chloro-4-{4-[(2-hydroxy-6-methoxyphenyl)methyl]piperazin-1-yl}-1-methyl-2-oxo-1,2-dihydro-1,5-naphthyridine-3-carbonitrile] | > 240 µM | 0.036 µM | 0.62 µM
Cn1c(=O)c(C#N)c(N2CCN(Cc3ccc(OC(F)(F)F)cc3O)CC2)c2nc(C#N)ccc21 [Example 265, 8-(4-{[2-hydroxy-4-(trifluoromethoxy)phenyl]methyl}piperazin-1-yl)-5-methyl-6-oxo-5,6-dihydro-1,5-naphthyridine-2,7-dicarbonitrile] | 36 µM | 0.039 µM | 0.034 µM
